Like-named read-outs stand apart in the source and are kept apart here.
How the values were obtained:
[1] = test system: H3K27me3 mark in HeLa cells (EZH2); assay: H3K27me3 Alpha Hela Assay (AlphaLISA); format: cell-based; details: HeLa cells, 72 hrs, read-out: EZH2 Cell H3K27me3 Alpha HeLa (EC50 K27me3)
Outline: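 HeLa cells (1,000/well) treated with ten 3-fold compound doses for 72 h at 37 °C; lysates extracted and H3K27me3 detected by AlphaLISA with anti-K27me3 acceptor beads, biotinylated anti-H3 (3 nM) and streptavidin donor beads. EC50 from DMSO-normalized dose-response curves; duplicate plate assessed viability.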

PRC2 containing wt EZH2 = PRC2 containing wt EZH2 (Homo sapiens (Human), UniProt Q15910); assay: EZH2 biochemical assay (IC50), 3H-SAM incorporation into biotinylated H3 peptide
PRC2 containing wt EZH2, sequence (Q15910 whole entry): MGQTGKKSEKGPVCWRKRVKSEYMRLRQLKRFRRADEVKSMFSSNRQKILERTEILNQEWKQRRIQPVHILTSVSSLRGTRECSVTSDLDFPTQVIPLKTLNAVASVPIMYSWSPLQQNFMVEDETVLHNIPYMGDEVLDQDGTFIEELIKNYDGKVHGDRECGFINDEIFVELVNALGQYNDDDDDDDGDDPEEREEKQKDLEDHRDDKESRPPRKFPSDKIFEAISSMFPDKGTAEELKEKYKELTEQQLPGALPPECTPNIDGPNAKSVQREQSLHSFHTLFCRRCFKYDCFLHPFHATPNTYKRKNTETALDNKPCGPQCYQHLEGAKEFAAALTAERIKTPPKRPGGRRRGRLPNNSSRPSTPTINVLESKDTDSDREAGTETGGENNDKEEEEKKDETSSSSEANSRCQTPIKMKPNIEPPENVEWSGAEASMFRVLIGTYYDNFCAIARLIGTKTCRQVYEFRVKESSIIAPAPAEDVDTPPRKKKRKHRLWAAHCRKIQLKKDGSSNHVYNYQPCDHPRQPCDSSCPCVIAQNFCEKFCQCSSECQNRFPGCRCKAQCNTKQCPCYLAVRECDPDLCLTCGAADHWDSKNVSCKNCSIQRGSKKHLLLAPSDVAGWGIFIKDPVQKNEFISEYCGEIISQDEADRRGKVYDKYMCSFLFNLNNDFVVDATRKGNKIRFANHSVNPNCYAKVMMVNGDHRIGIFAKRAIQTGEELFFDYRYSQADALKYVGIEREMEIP
PRC2 containing wt EZH2, sequence (O75530 whole entry partner): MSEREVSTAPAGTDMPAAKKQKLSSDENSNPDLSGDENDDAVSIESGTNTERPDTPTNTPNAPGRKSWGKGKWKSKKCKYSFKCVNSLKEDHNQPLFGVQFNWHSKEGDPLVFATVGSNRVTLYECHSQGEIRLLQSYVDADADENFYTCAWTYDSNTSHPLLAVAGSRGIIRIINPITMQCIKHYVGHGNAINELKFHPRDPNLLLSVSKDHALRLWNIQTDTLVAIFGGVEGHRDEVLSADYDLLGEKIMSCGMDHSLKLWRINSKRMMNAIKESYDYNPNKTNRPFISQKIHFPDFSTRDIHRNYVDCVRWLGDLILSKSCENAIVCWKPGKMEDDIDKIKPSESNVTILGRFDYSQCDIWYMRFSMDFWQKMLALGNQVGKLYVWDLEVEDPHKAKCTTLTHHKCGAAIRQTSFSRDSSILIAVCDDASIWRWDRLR
PRC2 containing wt EZH2, sequence (Q15022 whole entry partner): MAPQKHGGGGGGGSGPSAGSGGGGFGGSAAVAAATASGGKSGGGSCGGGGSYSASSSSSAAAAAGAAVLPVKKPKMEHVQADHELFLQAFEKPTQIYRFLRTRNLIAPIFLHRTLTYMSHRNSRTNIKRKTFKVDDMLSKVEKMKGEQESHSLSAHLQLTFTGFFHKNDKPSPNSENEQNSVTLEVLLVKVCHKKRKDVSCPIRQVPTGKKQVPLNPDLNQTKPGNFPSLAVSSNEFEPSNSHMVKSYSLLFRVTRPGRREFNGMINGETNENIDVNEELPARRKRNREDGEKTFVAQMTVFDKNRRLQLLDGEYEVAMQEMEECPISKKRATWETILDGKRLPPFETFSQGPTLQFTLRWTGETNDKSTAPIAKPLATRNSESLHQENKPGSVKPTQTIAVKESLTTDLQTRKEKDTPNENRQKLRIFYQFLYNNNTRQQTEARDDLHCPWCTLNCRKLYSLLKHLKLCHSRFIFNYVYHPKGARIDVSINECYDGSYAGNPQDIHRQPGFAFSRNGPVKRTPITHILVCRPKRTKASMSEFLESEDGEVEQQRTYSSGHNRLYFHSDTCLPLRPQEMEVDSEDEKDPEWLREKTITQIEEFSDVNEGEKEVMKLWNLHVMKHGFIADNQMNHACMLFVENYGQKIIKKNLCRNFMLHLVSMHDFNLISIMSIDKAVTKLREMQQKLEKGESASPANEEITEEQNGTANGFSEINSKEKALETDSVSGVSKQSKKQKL
PRC2 containing wt EZH2, sequence (Q09028 whole entry partner): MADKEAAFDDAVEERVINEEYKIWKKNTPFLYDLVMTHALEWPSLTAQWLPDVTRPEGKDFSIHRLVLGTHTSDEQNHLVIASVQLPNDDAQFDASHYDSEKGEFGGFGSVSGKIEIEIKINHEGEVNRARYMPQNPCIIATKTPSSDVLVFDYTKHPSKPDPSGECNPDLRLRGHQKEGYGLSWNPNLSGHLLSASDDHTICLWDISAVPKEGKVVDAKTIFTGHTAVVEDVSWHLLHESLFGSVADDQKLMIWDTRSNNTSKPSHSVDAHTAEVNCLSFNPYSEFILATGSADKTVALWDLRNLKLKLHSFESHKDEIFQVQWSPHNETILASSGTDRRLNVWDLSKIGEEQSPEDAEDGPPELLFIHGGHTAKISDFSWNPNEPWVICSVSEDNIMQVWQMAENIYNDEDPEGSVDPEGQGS
PRC2 containing wt EZH2, sequence (Q6ZN18 whole entry partner): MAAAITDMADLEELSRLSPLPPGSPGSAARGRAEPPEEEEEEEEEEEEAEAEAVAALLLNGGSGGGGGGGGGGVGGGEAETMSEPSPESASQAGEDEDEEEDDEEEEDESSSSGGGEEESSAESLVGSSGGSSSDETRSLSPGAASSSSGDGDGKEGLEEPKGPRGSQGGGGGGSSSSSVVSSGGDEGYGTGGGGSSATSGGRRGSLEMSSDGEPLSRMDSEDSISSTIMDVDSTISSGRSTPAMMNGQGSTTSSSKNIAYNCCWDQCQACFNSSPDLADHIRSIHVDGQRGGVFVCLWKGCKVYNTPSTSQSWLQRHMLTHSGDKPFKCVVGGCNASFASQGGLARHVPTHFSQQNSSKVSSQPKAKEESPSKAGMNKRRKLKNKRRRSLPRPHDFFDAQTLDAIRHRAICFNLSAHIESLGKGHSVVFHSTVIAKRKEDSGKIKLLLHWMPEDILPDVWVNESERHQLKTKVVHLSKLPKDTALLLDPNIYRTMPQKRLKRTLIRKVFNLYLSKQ
Outline: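 Activity was measured as ³H-methyl transfer to a biotinylated H3K27me1 peptide over 18-22 h at room temperature, with capture on streptavidin flash plates. The 30 pM wt-EZH2 PRC2 complex was first pre-incubated 3-5 h with compound, 450 nM SAM/450 nM ³H-SAM and 2 µM H3K27me3 activator (pH 8.5, 0.8% DMSO). Four-parameter fits gave IC50.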

[2] = 30 pM PRC2 containing wt EZH2; 3-5 h pre-incubation; read-out: EZH2 (IC50)
[3] = EZH2 (IC50), 30 pM PRC2 containing wt EZH2; 3-5 h pre-incubation

| SMILES | EC50 [1] [nM] | IC50 (PRC2 containing wt EZH2; [2]) [nM] | EC50 ([1]; Homo sapiens, HeLa, 72 h) [nM] | IC50 (PRC2 containing wt EZH2; [3]) [nM] | IC50 (PRC2 containing wt EZH2; read-out: EZH2 (IC50); 30 pM PRC2 containing wt EZH2; 3-5 h pre-incubation) [nM] |
| --- | --- | --- | --- | --- | --- |
| COC1CN(C2CCC([C@@H](C)n3c(C)c(C(=O)NCc4c(SC)cc(C)[nH]c4=O)c4cc(Cl)cnc43)CC2)C1 (single isomer, unassigned) [106 (isomer 2)] | 10 to 100 | < 0.5 | – | – | – |
| CSc1cc(C)[nH]c(=O)c1CNC(=O)c1c(C)n([C@H](C)C2CCC(N3CC(OC(C)(C)C)C3)CC2)c2ncccc12 (single isomer, unassigned) [112 (isomer 1)] | – | < 0.5 | < 10 | – | – |
| CSc1cc(C)[nH]c(=O)c1CNC(=O)c1c(C)n([C@H](C)C2CCC(N3CC(OC(C)(C)C)C3)CC2)c2ncccc12 (single isomer, unassigned) [112 (isomer 2)] | 10 to 100 | < 0.5 | – | – | – |
| CSc1cc(C)[nH]c(=O)c1CNC(=O)c1c(C)n([C@H](C)C2CCC(N3CC(OC4CC4)C3)CC2)c2c(F)cccc12 (single isomer, unassigned) [113 (isomer 1)] | – | < 0.5 | < 10 | – | – |
| CSc1cc(C)[nH]c(=O)c1CNC(=O)c1c(C)n([C@H](C)C2CCC(N3CC(OC4CC4)C3)CC2)c2c(F)cccc12 (single isomer, unassigned) [113 (isomer 2)] | 10 to 100 | < 0.5 | – | – | – |
| CSc1cc(C)[nH]c(=O)c1CNC(=O)c1c(C)n([C@H](C)C2CCC(N3CC(OC(F)F)C3)CC2)c2c(F)cccc12 (single isomer, unassigned) [121 (isomer 1)] | < 10 | < 0.5 | – | – | – |
| CSc1cc(C)[nH]c(=O)c1CNC(=O)c1c(C)n([C@H](C)C2CCC(N3CC(OC(F)F)C3)CC2)c2c(F)cccc12 (single isomer, unassigned) [121 (isomer 2)] | > 100 | 0.5 to 5 | – | – | – |
| CSc1cc(C)[nH]c(=O)c1CNC(=O)c1c(C)n([C@H](C)C2CCC(N3CC(OC(F)(F)F)C3)CC2)c2ncncc12 (single isomer, unassigned) [123 (isomer 1)] | – | < 0.5 | < 10 | – | – |
| CSc1cc(C)[nH]c(=O)c1CNC(=O)c1c(C)n([C@H](C)C2CCC(N3CC(OC(F)(F)F)C3)CC2)c2ncncc12 (single isomer, unassigned) [123 (isomer 2)] | < 10 | < 0.5 | – | – | – |
| COc1cnc2c(c1)c(C(=O)NCc1c(SC)cc(C)[nH]c1=O)c(C)n2[C@H](C)C1CCC(N2CC(OC(F)F)C2)CC1 (single isomer, unassigned) [125 (isomer 1)] | – | < 0.5 | < 10 | – | – |
| CSc1cc(C)[nH]c(=O)c1CNC(=O)c1c(C)n([C@H](C)C2CCC(OC(C)=O)CC2)c2ccccc12 (single isomer, unassigned) [134 (isomer 1)] | – | < 0.5 | < 10 | – | – |
| CSc1cc(C)[nH]c(=O)c1CNC(=O)c1c(C)n([C@H](C)C2CCC(OC(C)=O)CC2)c2ccccc12 (single isomer, unassigned) [134 (isomer 2)] | < 10 | < 0.5 | – | – | – |
| CSc1cc(C)[nH]c(=O)c1CNC(=O)c1c(C)n([C@H](C)C2CCC(OC3COC3)CC2)c2ccccc12 (single isomer, unassigned) [137 (isomer 1)] | – | – | < 10 | < 0.5 | – |
| CSc1cc(C)[nH]c(=O)c1CNC(=O)c1c(C)n([C@H](C)C2CCC(OC3COC3)CC2)c2ccccc12 (single isomer, unassigned) [137 (isomer 2)] | < 10 | – | – | – | < 0.5 |
| CSc1cc(C)[nH]c(=O)c1CNC(=O)c1c(C)n([C@H](C)C2CCC(N3CC(C#N)C3)CC2)c2ccccc12 (single isomer, unassigned) [138 (isomer 1)] | – | – | 10 to 100 | 0.5 to 5 | – |
| CSc1cc(C)[nH]c(=O)c1CNC(=O)c1c(C)n([C@H](C)C2CCC(N3CC(C#N)C3)CC2)c2ccccc12 (single isomer, unassigned) [138 (isomer 2)] | 10 to 100 | – | – | < 0.5 | – |
| CSc1cc(C)[nH]c(=O)c1CNC(=O)c1c(C)n([C@H](C)C2CCC(N3CC34COC4)CC2)c2ncccc12 (single isomer, unassigned) [139 (isomer 1)] | – | – | 10 to 100 | < 0.5 | – |
| CSc1cc(C)[nH]c(=O)c1CNC(=O)c1c(C)n([C@H](C)C2CCC(N3CC34COC4)CC2)c2ncccc12 (single isomer, unassigned) [139 (isomer 2)] | 10 to 100 | – | – | 0.5 to 5 | – |
| CCCC(=O)OC1CCC([C@@H](C)n2c(C)c(C(=O)NCc3c(SC)cc(C)[nH]c3=O)c3ccccc32)CC1 (single isomer, unassigned) [143 (isomer 1)] | – | < 0.5 | < 10 | – | – |
| CCCC(=O)OC1CCC([C@@H](C)n2c(C)c(C(=O)NCc3c(SC)cc(C)[nH]c3=O)c3ccccc32)CC1 (single isomer, unassigned) [143 (isomer 2)] | < 10 | < 0.5 | – | – | – |

| SMILES | EC50 [1] [nM] | IC50 (PRC2 containing wt EZH2; [2]) [nM] | EC50 ([1]; Homo sapiens, HeLa, 72 h) [nM] | IC50 (PRC2 containing wt EZH2; [3]) [nM] | IC50 (PRC2 containing wt EZH2; read-out: EZH2 (IC50); 30 pM PRC2 containing wt EZH2; 3-5 h pre-incubation) [nM] |
| --- | --- | --- | --- | --- | --- |
| CSc1cc(C)[nH]c(=O)c1CNC(=O)c1c(C)n([C@H](C)C2CCC(OC(=O)C(C)C)CC2)c2ccccc12 (single isomer, unassigned) [144 (isomer 1)] | – | < 0.5 | < 10 | – | – |
| CSc1cc(C)[nH]c(=O)c1CNC(=O)c1c(C)n([C@H](C)C2CCC(OC(=O)C(C)C)CC2)c2ccccc12 (single isomer, unassigned) [144 (isomer 2)] | < 10 | < 0.5 | – | – | – |
| CSc1cc(C)[nH]c(=O)c1CNC(=O)c1c(C)n([C@H](C)C2CCC(OC3CN(C)C3)CC2)c2ncccc12 (single isomer, unassigned) [145 (isomer 1)] | – | – | > 100 | 0.5 to 5 | – |
| CSc1cc(C)[nH]c(=O)c1CNC(=O)c1c(C)n([C@H](C)C2CCC(OC3CN(C)C3)CC2)c2ncccc12 (single isomer, unassigned) [145 (isomer 2)] | > 100 | – | – | < 0.5 | – |
| CSc1cc(C)[nH]c(=O)c1CNC(=O)c1c(C)n([C@H](C)C2CCC(Oc3cnn(C)c3)CC2)c2ncccc12 (single isomer, unassigned) [147 (isomer 1)] | – | < 0.5 | < 10 | – | – |
| CSc1cc(C)[nH]c(=O)c1CNC(=O)c1c(C)n([C@H](C)C2CCC(Oc3cnn(C)c3)CC2)c2ncccc12 (single isomer, unassigned) [147 (isomer 2)] | < 10 | < 0.5 | – | – | – |
| CSc1cc(C)[nH]c(=O)c1CNC(=O)c1c(C)n([C@H](C)C2CCC(N3CC(N(C)C)C3)CC2)c2ccccc12 (single isomer, unassigned) [148 (isomer 1)] | – | < 0.5 | 10 to 100 | – | – |
| CSc1cc(C)[nH]c(=O)c1CNC(=O)c1c(C)n([C@H](C)C2CCC(N3CC(N(C)C)C3)CC2)c2ccccc12 (single isomer, unassigned) [148 (isomer 2)] | 10 to 100 | < 0.5 | – | – | – |
| CSc1cc(C)[nH]c(=O)c1CNC(=O)c1c(C)n([C@H](C)C2CCC(NC3(C)CCOC3)CC2)c2ccccc12 (single isomer, unassigned) [149 (isomer 1)] | – | < 0.5 | 10 to 100 | – | – |
| CSc1cc(C)[nH]c(=O)c1CNC(=O)c1c(C)n([C@H](C)C2CCC(NC3(C)CCOC3)CC2)c2ccccc12 (single isomer, unassigned) [149 (isomer 2)] | 10 to 100 | < 0.5 | – | – | – |
| CSc1cc(C)[nH]c(=O)c1CNC(=O)c1c(C)n([C@H](C)C2CCC(NC3(CF)COC3)CC2)c2ccccc12 (single isomer, unassigned) [154 (isomer 1)] | – | < 0.5 | 10 to 100 | – | – |
| CSc1cc(C)[nH]c(=O)c1CNC(=O)c1c(C)n([C@H](C)C2CCC(NC3(CF)COC3)CC2)c2ccccc12 (single isomer, unassigned) [154 (isomer 2)] | < 10 | < 0.5 | – | – | – |
| CSc1cc(C)[nH]c(=O)c1CNC(=O)c1c(C)n([C@H](C)C2CCC(NC3(CF)COC3)CC2)c2ncccc12 (single isomer, unassigned) [155 (isomer 1)] | – | < 0.5 | < 10 | – | – |
| CSc1cc(C)[nH]c(=O)c1CNC(=O)c1c(C)n([C@H](C)C2CCC(NC3(CF)COC3)CC2)c2ncccc12 (single isomer, unassigned) [155 (isomer 2)] | 10 to 100 | 0.5 to 5 | – | – | – |
| CSc1cc(C)[nH]c(=O)c1CNC(=O)c1c(C)n([C@H](C)C2CCC(NC3(CF)COC3)CC2)c2ncncc12 (single isomer, unassigned) [156 (isomer 1)] | – | < 0.5 | < 10 | – | – |
| CSc1cc(C)[nH]c(=O)c1CNC(=O)c1c(C)n([C@H](C)C2CCC(NC3(CF)COC3)CC2)c2ncncc12 (single isomer, unassigned) [156 (isomer 2)] | 10 to 100 | < 0.5 | – | – | – |
| CSc1cc(C)[nH]c(=O)c1CNC(=O)c1c(C)n([C@H](C)C2CCC(NC3(CO)COC3)CC2)c2cc(F)ccc12 (single isomer, unassigned) [159 (isomer 1)] | – | < 0.5 | 10 to 100 | – | – |
| CSc1cc(C)[nH]c(=O)c1CNC(=O)c1c(C)n([C@H](C)C2CCC(NC3(CO)COC3)CC2)c2cc(F)ccc12 (single isomer, unassigned) [159 (isomer 2)] | 10 to 100 | < 0.5 | – | – | – |
| CSc1cc(C)[nH]c(=O)c1CNC(=O)c1c(C)n([C@H](C)C2CCC(N3CC(S(C)(=O)=O)C3)CC2)c2ccccc12 (single isomer, unassigned) [162 (isomer 1)] | 10 to 100 | < 0.5 | – | – | – |
| CSc1cc(C)[nH]c(=O)c1CNC(=O)c1c(C)n([C@H](C)C2CCC(N3CC(S(C)(=O)=O)C3)CC2)c2ccccc12 (single isomer, unassigned) [162 (isomer 2)] | > 100 | 0.5 to 5 | – | – | – |

Source: patent US11459315B2, “Modulators of methyl modifying enzymes, compositions and uses thereof” (Constellation Pharmaceuticals, Inc., priority 2017, dated 2022)
